target: T1, mouse JNK 3 (Mus musculus, UniProt Q61831); test: JNK 3 inhibitory activity (33P incorporation into GST-JSAP1 fused protein); type: biochemical; conditions: crude extract of COS-7 cells expressing mouse JNK 3; 3 μmol/L ATP; GST-JSAP1 substrate; 30° C., 15 minutes; read-out: JNK3 Inhibitory Activity (IC50/μM)
T1 construct: made in house; host or cells: COS-7 cells (crude extract)
Procedure: A crude extract of COS-7 cells in which mouse JNK 3 was expressed was used as the transcription enzyme solution. Glutathione-S-transferase (GST)-JSAP 1 (JNK/SAPK associated protein 1) fused protein was expressed in E. coli and its crude extract was subjected to an affinity purification using a column of Glutathione Sepharose 4B. An enzyme solution (3 μL), 50 μL of a reaction solution containing a test compound [in the reaction solution, (physiological saline)/(DMSO solution containing the test compound) (ratio by weight) was adjusted to 99/1], 50 μL of a substrate solution (final concentration: 3 μmol/L ATP), 0.75 μCi/ml[γ-^33P]-ATP and 66 μg/mL (1.5 μmol/L) of GST-JSAP1 fused protein reaction solution were incubated at 30° C. for 15 minutes. The reaction was stopped by addition of ethanol whereupon the GST-JSAP1 fused protein was precipitated. The precipitated protein was filtered using a Filter Mate Harvester (Packard Instruments) and adsorbed to a Unifilter Plate GF/B. Incorporation of radiation activity from [γ-^33P1-ATP to the GST-JSAP1 fused protein was measured using TopCount-HTS (Packard Instruments) to calculate enzyme inhibition activity. The enzyme inhibitory activity was calculated by a Probit (L) method using a statistic analysis software SAS (Release 6.12; SAS Institute, Inc.) as the 50% enzyme activity inhibiting concentration (IC50).

T1 sequence (Q61831 whole entry, the tested form may be a part): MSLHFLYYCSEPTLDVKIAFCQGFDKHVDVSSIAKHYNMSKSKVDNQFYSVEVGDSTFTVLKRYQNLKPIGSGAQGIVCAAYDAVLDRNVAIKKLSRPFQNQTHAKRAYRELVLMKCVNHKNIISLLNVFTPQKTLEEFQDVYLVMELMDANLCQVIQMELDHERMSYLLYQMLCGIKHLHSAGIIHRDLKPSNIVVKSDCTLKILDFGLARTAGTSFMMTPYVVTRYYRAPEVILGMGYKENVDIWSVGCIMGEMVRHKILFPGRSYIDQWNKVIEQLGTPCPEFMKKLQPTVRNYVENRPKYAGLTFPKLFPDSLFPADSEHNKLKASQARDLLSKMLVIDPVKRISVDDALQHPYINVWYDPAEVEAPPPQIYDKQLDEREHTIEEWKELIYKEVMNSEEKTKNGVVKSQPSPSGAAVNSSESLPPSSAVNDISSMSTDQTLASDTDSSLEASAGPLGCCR

Row | IC50 [µM] | Molecule
1 | < 0.5 | O=C(Nc1ccc2[nH]nc(/C=C/c3cccnc3)c2c1)c1ccncc1 [Compound 11, (E)-5-(4-Pyridinecarboxamido)-3-[2-(3-pyridyl)vinyl]-1H-indazole]
2 | < 0.5 | O=C(Nc1ccccc1/C=C/c1n[nH]c2ccc(C#CCO)cc12)c1ccccc1 [Compound 26, (E)-3-[2-(2-Benezoylaminophenyl)vinyl]-5-(3-hydroxy-1-propyn-1-yl)-1H-indazole]
3 | < 0.5 | OCC#Cc1ccc2[nH]nc(/C=C/c3cccnc3)c2c1 [Compound 18, (E)-5-(3-hydroxy-1-propyn-1-yl)-3-[2-(3-pyridyl)vinyl]-1H-indazole]
4 | < 0.5 | C(=C\c1n[nH]c2ccccc12)/c1cccnc1 [Compound 2, (E)-3-[2-(3-Pyridyl)vinyl]-1H-indazole]
5 | < 0.5 | O=C(O)c1ccc2[nH]nc(/C=C/c3cccnc3)c2c1 [Compound 19, (E)-3-[2-(3-Pyridyl)vinyl]-1H-indazole-5-carboxylic acid]
6 | < 0.5 | O=C(Cc1c[nH]c2ccccc12)Nc1ccc2[nH]nc(/C=C/c3cccnc3)c2c1 [Compound 6, (E)-5-(3-Indolyl)acetamide-3-[2-(3-pyridyl)vinyl]-1H-indazole]
7 | < 0.5 | O=C(O)c1ccc(/C=C/c2ccc3[nH]nc(/C=C/c4cccnc4)c3c2)cc1 [Compound 17, (E)-5-[2-(4-Carboxyphenyl)vinyl]-(E)-3-[2-(3-pyridyl)vinyl]-1H-indazole]
8 | < 0.5 | O=C(O)/C=C/c1ccc2[nH]nc(/C=C/c3cccnc3)c2c1 [Compound 15, (E)-5-(2-Carbonxyvinyl)-(E)-3-[2-(3-pyridyl)vinyl]-1H-indazole]
9 | 0.55 | O=C(Nc1ccc2[nH]nc(/C=C/c3cccnc3)c2c1)c1cnccn1 [Compound 9, (E)-5-(Pyrazinecarboxamido)-3-[2-(3-pyridyl)vinyl]-1H-indazole]
10 | 1.2 | O=C(CCS(=O)(=O)c1ccccc1)Nc1ccc2[nH]nc(/C=C/c3cccnc3)c2c1 [Compound 7, (E)-5-[3-(Phenylsulfonyl)propaneamido]-3-[2-(3-pyridyl)vinyl]-1H-indazole]
11 | < 0.5 | CN(C)CCOc1ccc(/C=C/c2n[nH]c3ccccc23)cc1 [Compound 1]
12 | < 0.5 | OCC=Cc1ccc2[nH]nc(/C=C/c3cccnc3)c2c1 [Compound 21, (E)-5-(3-Hydroxy-1-propen-1-yl)-3-[2-(3-pyridyl)vinyl]-1H-indazole]
13 | < 0.5 | COC(=O)/C=C/c1ccc2[nH]nc(/C=C/c3cccnc3)c2c1 [Compound 14, (E)-5-(2-Methoxycarbonylvinyl)-(E)-3-[2-(3-pyridyl)vinyl]-1H-indazole]
14 | < 0.5 | O=C(Nc1ccccc1/C=C/c1n[nH]c2ccc(/C=C/CO)cc12)c1ccccc1 [Compound 25, (E)-3-[2-(2-Benzoylaminophenyl)vinyl]-(E)-5-(3-hydroxy-1-propen-1-yl)-1H-indazole]
15 | < 0.5 | O=C(O)c1ccc(C(=O)Nc2ccc3[nH]nc(/C=C/c4cnccc4NC(=O)c4ccccc4)c3c2)cc1 [Compound 24, (E)-3-[2-(4-Benzamidopyridin-3-yl)vinyl]-5-(4-carboxybenzamido)-1H-indazole]
16 | < 0.5 | O=C(O)c1ccc(C(=O)Nc2ccc3[nH]nc(/C=C/c4cccnc4)c3c2)cc1 [Compound 12, (E)-5-(4-Carboxybenzamido)-3-[2-(3-pyridyl)vinyl]-1H-indazole]

Row | Molecule | IC50 [µM]
17 | (E)-3-[2-(Benzamidopyridin-3-yl)vinyl]-(E)-5-(2-carboxyvinyl)-1H-indazole [Compound 23] | < 0.5

system: PC12 cells; test: Apoptosis suppressive activity by removal of NGF in NGF-differentiated PC12 cells (MTT); type: cell-based; conditions: 3 μmol/L test compound; 24 hours without NGF; cells with NGF not removed = 100%, NGF removed = 0%
Procedure: PC12 cells prepared in 6.0×10^4/mL by Roswell Park Memorial Institute's Medium (RPMI) 1640 medium containing 10% of horse serum, 5% of bovine fetal serum and penicillin/streptomycin were disposed in a 24-well multidish (NulgeNunc International; No. 143982) coated with polyethyleneimine in an amount of 0.5 mL for each well. After the cells were adhered to the dish, the medium was removed, an RPMI 1640 medium containing […] of 1% horse serum, penicillin/streptomycin and 50 ng/mL of mouse nerve growth factor (NGF) was added and the cells were incubated in a carbon dioxide gas incubator at 37° C. for 9 to 12 days, causing the cells to differentiate into a nerve cell form. A dilution series of DMSO solution of the test compound was prepared, and diluted with a medium containing 1% horse serum and penicillin/streptomycin and containing no NGF (final DMSO concentration: 0.1%). The medium was removed, washing was conducted twice using a medium containing 0.5 mL of the test compound, 1% horse serum, and penicillin/streptomycin, and containing no NGF, 0.5 mL of the above-medium was added once again to each well and then incubation was conducted in a carbon dioxide gas incubator at 37° C. for 24 hours. The medium was removed, 0.2 mL of a medium containing 1% horse serum, penicillin/streptomycin, NGF and 1 mg/mL 3-(4,5-dimethyl-2-thiazolyl)-2,5-diphenyl-2H-tetrazolium bromide (MTT) containing no test compound, was added to each well and incubation was conducted in a carbon dioxide gas incubator at 37° C. for 4 hours. DMSO (0.6 mL) was added to each well and 0.2 mL thereof was transferred to a 96-well multititer plate (Nulge Nunc International; No. 167008) and absorbances at 590 nm and 630 nm were measured using a microplate reader EL 3401 (Bio-Tek). The absorbance differential was calculated by subtracting the […] for each well. The apoptosis suppressive activity (%) of test compound were calculated by comparing the absorbance differential obtained from cells treated with test compound of known concentration with the value in the cells from which no NGF was removed and the value in the cells from which NGF was removed. Here, the value in the cells from which no NGF was removed was set at 100% while the value in the cells from which NGF was removed was set at 0%.

Row | Molecule | Apoptosis Suppressive Activity in 3 μmol/L of Test Compound (%)
18 | O=C(Nc1ccc2[nH]nc(/C=C/c3cccnc3)c2c1)c1ccccc1 [Compound 4, (E)-5-Benzamido-3-[2-(3-pyridyl)vinyl]-1H-indazole] | 64
19 | C(=C\c1n[nH]c2ccccc12)/c1cccnc1 [Compound 2, (E)-3-[2-(3-Pyridyl)vinyl]-1H-indazole] | 44
20 | CN(C)CCOc1ccc(/C=C/c2n[nH]c3ccccc23)cc1 [Compound 1] | 63
21 | COC(=O)/C=C/c1ccc2[nH]nc(/C=C/c3cccnc3)c2c1 [Compound 14, (E)-5-(2-Methoxycarbonylvinyl)-(E)-3-[2-(3-pyridyl)vinyl]-1H-indazole] | 62
